Data taken from publication PMC10226132, “First-in-Class Selective Inhibitors of the Lysine Acetyltransferase KAT8” (Journal of Medicinal Chemistry, 2023).

How the values were obtained:
[1] = target: T1, KAT3B (Homo sapiens, UniProt Q09472); test: HotSpot KAT assay, KAT3B; assay type: biochemical; settings: enzyme 1 nM, NI = no inhibition at 200 μM, mean ± SD of three independent experiments; for IC50: read-out: IC50 KAT3B (1 nM)
T1 construct: KAT3B (aa 1284–1672, 1 nM); purchased Reaction Biology Corporation
T1 sequence (Q09472 1284-1672): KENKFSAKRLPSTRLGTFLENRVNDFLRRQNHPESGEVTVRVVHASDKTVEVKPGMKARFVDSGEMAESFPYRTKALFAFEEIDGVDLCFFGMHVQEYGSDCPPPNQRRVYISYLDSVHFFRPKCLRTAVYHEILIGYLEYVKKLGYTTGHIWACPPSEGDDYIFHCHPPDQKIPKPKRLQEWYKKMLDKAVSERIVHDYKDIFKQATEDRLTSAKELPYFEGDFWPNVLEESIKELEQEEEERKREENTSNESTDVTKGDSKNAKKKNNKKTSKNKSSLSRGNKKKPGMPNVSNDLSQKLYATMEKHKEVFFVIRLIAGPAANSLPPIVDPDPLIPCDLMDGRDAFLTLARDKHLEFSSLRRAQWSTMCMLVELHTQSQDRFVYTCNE

[2] = target: T2, KAT8 (Homo sapiens, UniProt Q9H7Z6); test: SPR-based KAT8 binding assay; settings: immobilized KAT8, 25 °C, read-out: equilibrium dissociation constant (KD)
T2 construct: using the previously purified KAT8 (173–458, 5 nM); 6xHis tag with TEV protease cleavage site (N, cleaved yes); made in house; host or cells: E. coli BL21(DE3)
T2 sequence (Q9H7Z6 173-458): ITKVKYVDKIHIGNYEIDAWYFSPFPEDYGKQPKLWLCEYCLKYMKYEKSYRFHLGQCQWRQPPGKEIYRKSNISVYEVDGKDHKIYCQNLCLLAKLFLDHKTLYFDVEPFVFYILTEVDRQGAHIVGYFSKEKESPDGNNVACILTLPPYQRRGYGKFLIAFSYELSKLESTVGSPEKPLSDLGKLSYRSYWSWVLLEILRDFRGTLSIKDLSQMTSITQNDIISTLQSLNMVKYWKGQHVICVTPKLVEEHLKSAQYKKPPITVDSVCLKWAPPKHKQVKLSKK
Procedure: SPR analyses were performed on a Biacore 3000 optical biosensor (GE Healthcare) equipped with a research-grade CM5 sensor chip. KAT8 was immobilized (30 μg/mL in 10 mM sodium acetate, pH 4.5) at a flow rate of 10 μL/min by using a standard amine-coupling protocol to obtain a density of 12 kRU. One flow cell was left empty for background subtractions. Both compounds, dissolved in DMSO (100%), were diluted in assay buffer (150 mM NaCl, 10 mM HEPES pH 7.4, 0.005% Tween-20), always maintaining a final 1% DMSO concentration. Binding experiments were performed at 25 °C by using a flow rate of 30 μL/min, with 120 s monitoring of association and 200 s monitoring of dissociation. Regeneration of the surfaces was performed, when necessary, by a 10 s injection of 1 mM NaOH.

[3] = HPLC-based analysis of thiol reactivity; assay type: physicochemical; settings: 0.5 mM compound, 2 mM DTT, BME or GSH, pH 7.5, 1, 8 or 24 h at room temperature
Procedure: Compounds 19 and 34 were dissolved in a solution containing 100 mM NaCl and 40 mM Tris·HCl (pH 7.5) with the addition of DTT, BME, or GSH (each at 2 mM) to a final concentration of 0.5 mM and incubated for 1, 8, and 24 h at rt. HPLC analysis was then performed at three wavelengths (254, 286, and 395 nm) under the same conditions described in the “Chemistry” paragraph of the Experimental Section.

[4] = system: H4K16Ac in HT29 cells; test: Immunofluorescence of H4K16Ac in HT29 cells; assay type: cell-based, human; settings: 50 μM, 24 h, compared with control
Procedure: (§1) For IF analysis, 1 × 10^5 HT-29 cells were grown on sterile coverslips. After 24 h, cells were exposed to different compounds for 24 h. IF staining for different acetylated lysine residues of histone H3 (H3K27Ac) and H4 (H4K16Ac) were carried out on PFA-fixed cells blocked with 20% goat serum in PBS and incubated overnight at 4 °C with primary rabbit monoclonal antibodies histone H3K27Ac (D5E4, Rabbit mAb#8173) and H4K16Ac (E2B8W, Rabbit mAb#13534, Cell Signalling Technology). Primary antibodies were detected using rabbit anti-IgG secondary antibodies conjugated with Cy3 (Jackson Immunoresearch 711-165-152). DNA was stained using 0.05 μg/mL 4′,6-diamidino-2-phenylindole (DAPI). The samples were acquired using an Olympus AX70 (Olympus America Inc.) microscope. Serial Z stacks of 0.4 μm thickness were acquired, taking care to cover the entire cell volume. For quantification of fluorescence intensity signals, images of untreated or treated cells were analyzed and processed using opensource Cell Profiler 4.1.3 image analysis software (https://cellprofiler.org/) to measure fluorescence-integrated intensity values for antibody binding relating to individual cells as previously reported.[67]

[5] = system: H3K27Ac in HT29 cells; test: Immunofluorescence of H3K27Ac in HT29 cells; assay type: cell-based, human; settings: 24 h, vs control
Procedure: as §1

[6] = system: HCT116 cells; test: Cell cycle analysis by propidium iodide staining, HCT116; assay type: cell-based, human; settings: 72 h
Procedure: For the analysis of the progression of cells through cell cycle phases and sub-G1 peak identification, 24 h after plating, cells were treated with the different compounds. After 72 h, both floating and adherent cells were collected and fixed with cold 70% ethanol. At least 24 h after fixation, cells were incubated with 0.025 mg/mL Propidium Iodide for 15 min at room temperature and analyzed. For Annexin V analysis, 24 h after plating, cells were treated with 50 and 100 μM of the compounds. In the case of chloroquine experiments, 10 μM chloroquine (Sigma-Aldrich, A9165) was added 30 min before compounds. 72 h after treatment, both floating and adherent cells were collected and stained with an Annexin V-FITC apoptosis detection kit (ENZO #ALX-850-020-KI). Samples were incubated 15 min in the dark at rt, and 10,000 events were then analyzed.

IC50 [1] [µM] | Kd [2] [µM] | reaction with thiol-containing nucleophiles (HPLC) [3] | IC50 KAT3B (1 nM) [1] | Compound | reduction in H4K16Ac signal intensity (IF) [4] | levels of histone H3K27Ac (IF) [5] | change in the different stages of cell cycle, HCT116 [6]
> 200 | 2.04 ± 0.24 | no evidence of reaction | – | O=C(O)c1ccc(N2N=C(c3ccccc3)/C(=C/c3ccc[nH]3)C2=O)cc1 [Compound 34, (Z)-4-(4-((1H-Pyrrol-2-yl)methylene)-5-oxo-3-phenyl-4,5-dihydro-1H-pyrazol-1-yl)benzoic Acid] | more than 50% | no significant differences | no significative change
> 200 | 4.94 ± 0.18 | no evidence of reaction | no inhibition at 200 μM | CC1=NN(c2ccc(C(=O)O)cc2)C(=O)/C1=C\c1ccc[nH]1 [Compound 19, (Z)-4-(4-((1H-Pyrrol-2-yl)methylene)-3-methyl-5-oxo-4,5-dihydro-1H-pyrazol-1-yl)benzoic Acid] | 80% | no significant differences | no significative change
